“Also recorded” adds a separate entry of the source. Where no end group is shown, it is not given here.
Tests used:
[1] = In vitro peptide aging: racemization, D-aspartate quantified in acid hydrolysates and rate constants fitted; assay type: physicochemical; details: for Asn/Asp/isoAsp residues racemized to the D-configuration by 4 days: 4 days of aging; for racemization rate constant of the succinimide: least squares fit of modeled D-Asx accumulation to measured values; for slope of racemization line (D-aspartate fraction versus time): deamidated peptides
Experimental: First, a 10 μL aliquot (3.27 nmol) was removed from the aged sample and dried in a small glass test tube. These tubes were placed in a hydrolysis vial and 300 μL of 6 M hydrochloric acid was added to the vial but not directly into the sample tubes. The vial was capped with a Teflon stopcock, and then was flushed with nitrogen and sealed under vacuum using a PicoTag Work Station (Waters). This method allows only acid vapor to contact the peptide, minimizing contamination with exogenous aspartic acid. Hydrolysis proceeded at 110° C. for the relatively short time of 3 h, which is long enough to release most of the asparaginyl/aspartyl residues from the peptide, while minimizing acid catalyzed racemization (Brunauer and Clarke 1986). D-Aspartate and L-aspartate in the hydrolysates were then modified with o-phthalaldehyde and N-acetyl-L-cysteine to make fluorescent diasteriomers and quantitated using reverse phase HPLC with fluorometric analysis (Aswad 1984), as modified by Warmack et al. 2016.
To get an estimate of the racemization rate constants, the rate constants determined by Geiger and Clarke (1987) for a peptide of the same sequence was used but only with protonated asparagine using the following equations, where each k value has the units of min^−1: […]
At time zero, the l-asparaginyl-containing peptide is set to a quantity of 1.0, and all of the degradation products are considered to have a quantity of 0. The equations are then solved to give the quantities of the peptides present after 1 min, and these quantities are then used to solve the peptides for the next minute. Using Microsoft Excel, these calculations were repeated until the amount of each peptide present after 20.6 days was determined.
To investigate the effect of asparagine residue deuteration on racemization, the peptides were aged at 37° C. and pH 7.4 as described above, and the quantity of D-aspartate determined following acid hydrolysis. While breaking the peptide bonds to release free amino acids, acid hydrolysis also converts asparaginyl, succinimidyl, and isoaspartyl residues into free aspartic acid. […] The accumulation of D-Asx residues (D-Asp, D-isoAsp, and D-succinimide) was modeled using the rate constants as described in the “Materials and methods” section to fit the data points using the values obtained by Geiger and Clarke (1987) and maximizing the fit by varying the rate constant for succinimide racemization.
VYPNGA containing either protiated or deuterated asparagine was incubated for various times at 37° C. and pH 7.4 and then acid hydrolyzed. The amount of d-aspartate and l-aspartate in the hydrolysates was quantified following derivatization with ortho-phthalaldehyde and N-acetyl-1-cysteine and separation of the resulting fluorescent diastereomers by reverse-phase HPLC, and graphed as the fraction of d-aspartate relative to the total aspartate (open circles). […] The lines were obtained by computer simulation of the reactions involved in deamidation of asparaginyl residues starting with previously published kinetic constants (Geiger and Clarke 1987), and varying the racemization rate of the succinimide intermediate to give a best-fit line as determined by least squares analysis.

[2] = In vitro peptide aging: hydrolysis of the succinimide intermediate to isoaspartyl vs normal aspartyl peptide (HPLC); assay type: physicochemical; details: for average relative amount of isoaspartyl-containing peptide (isoAsp/(isoAsp+Asp)): samples aged at 37° C. for at least 24 h, pH 7.4
Experimental: Both isoaspartyl- and normal aspartyl-containing peptides arose from spontaneous deamidation of the deuterated asparaginyl residue upon incubation at pH 7.4 and 37° C.

[3] = In vitro peptide aging: deamidation of the asparaginyl residue, by reverse-phase HPLC with UV at 210 nm; details: pH 7.4, 37° C.
Experimental: (§1) Deuterated peptide VYPNGA and the protonated control peptide were dissolved in 0.1 M sodium phosphate, pH 7.44 at 23° C. These solutions were sterilized by passing them through 0.2 μm pore syringe filters (Fisher), and 50 μL aliquots containing 40 nmol of peptide were placed in 200 μL PCR tubes, which were incubated at 37° C. for various times up to 20.6 days. At this temperature, the pH of the phosphate buffer is very close to 7.40. At the end of the incubations, 4.5 μL of 1 M hydrochloric acid was added to each tube, lowering the pH to about 4 to minimize any additional deamidation of the asparaginyl residue. These aged samples were then stored at −20° C. prior to analysis by HPLC.
(§2) Deuterated and non-deuterated VYPNGA were aged in vitro in 0.1 M sodium phosphate at physiological pH and temperature. The rate of deamidation of the asparaginyl residue was determined by separating the peptide from its degradation products using reverse phase HPLC and measuring the UV absorbance at 210 nm using the approach of Geiger and Clarke, supra.
(§3) The l- and d-forms of these peptides were not separated under these conditions. These HPLC runs were done with a linear gradient from 100% buffer A (0.1% trifluoroacetic acid in water) to 86% buffer A/14% buffer B (0.1% trifluoroacetic acid, 0.9% water, 99% acetonitrile) in 28 min.
(§4) The relative quantity of asparagine-containing peptide remaining (open circles) was quantified by UV absorbance at 210 nm during separation of the peptides by HPLC using a reverse phase C18 column as shown in FIG. 2. There were 24 data points in each panel though some were concealed due to overlap, combined from two independent aging experiments. The line in each panel was fit to the data points using the first order reaction equation [A]=[A]0e−kt and least squares analysis.

physchem = details: buffer, pH 7.4
Experimental: as §1, §2, §3, §4

[4] = Stephenson and Clarke; cited from earlier work
[5] = Geiger and Clarke 1987; cited from earlier work
[6] = between 9 and 22 days of incubation

Row | Substance | racemization rate constant relative to protiated peptide ([1]; 37° C., pH 7.4) | Asn/Asp/isoAsp residues racemized to the D-configuration by 4 days ([1]; 37° C., pH 7.4) [%] | aspartyl/isoaspartyl/succinimidyl residues racemized to the D-configuration after 21 days ([1]; 37° C., pH 7.4, 21 days of incubation) [%] | racemization rate constant of the succinimide ([1]; 37° C., pH 7.4) [min⁻¹] | succinimides that have lost the deuterium from the alpha carbon ([1]; 21 days of incubation, 2×1.49%) [%] | deamidated peptide still deuterated on the alpha carbon ([1]; after incubation, 9 to 22 days) | rate of racemization of l-aspartyl/l-isoaspartyl residues relative to protiated [1, 6] | slope of racemization line (D-aspartate fraction versus time) [1, 6] | accumulation of d-aspartyl and d-isoaspartyl forms / rate of D-aspartate formation relative to protiated peptide ([1]; pH 7.4, 37° C., up to 20 day incubation) | increase in production of normal aspartyl-containing peptide upon hydrolysis of the succinimide ring ([2]; deuterated versus protiated succinimide) | tendency of the succinimide to open to the isoaspartyl configuration / effect on succinimide hydrolysis ([2]; deuterated versus protonated succinimide) | average relative amount of isoaspartyl-containing peptide (isoAsp/(isoAsp+Asp)) [2] | asparaginyl residues deamidated after 6 days [3] | asparaginyl residues deamidated after three days [3] [%] | effect of deuterium atoms on rate of deamidation / succinimide formation ([3]; versus protiated peptide) | racemization rate constant relative to that previously measured (Geiger and Clarke) ([1]; higher than the literature value) | rate of racemization of protiated peptide relative to deuterated peptide ([1]; within the first day of aging under physiological conditions) [times] | half-life at 800 µM (physchem) [h] | succinimide formation of Asn residue in VYPNGA relative to aspartyl residue in VYPDGA [4] | L-isoAsp/(L-isoAsp+L-Asp) previously reported [5]
1 | VYPNGA [deuterated peptide] | almost five-fold lower | 1 | 1.49 | 7.4e-05 | 2.98 | over 97% | about fourfold slower | about 1.70×10^−4 day^−1 | much slower rate; also recorded: decreased more than five-fold; also recorded: five-fold decreased rate; also recorded: much more resistant to racemization | about 2.3% | slightly less likely to open to the isoaspartyl configuration; also recorded: only a small effect | 0.770 | about 95% | 80 | little effect; also recorded: unchanged; also recorded: no effect | – | – | – | – | –
2 | VYPNGA [protiated peptide, L-Val-L-Tyr-L-Pro-L-Asn-Gly-L-Ala, reference compound] | – | 5 | – | 0.00034 | – | – | – | 0.000677 day⁻¹ | – | – | – | 0.793 | about 95% | 80 | – | about 1.14 fold | 3.65 | 32.4 | about 37 times | 0.785

Reference: patent US20190084900A1, “ISOTOPICALLY MODIFIED COMPOSITION AND THERAPEUTIC USES THEREOF” (RETROTOPE, INC., priority 2016, published 2019)
